{"source": "patent US10329262B2", "about": "“Quinazolinone antibiotics” (priority 2013, dated 2019)", "key": {"S. aureus NRS70": {"tested_on": "S. aureus NRS70", "experiment": "MIC, broth microdilution, S. aureus NRS70", "format": "cell-based, Staphylococcus aureus", "settings": "for MIC: Staphylococcus aureus", "procedure": "(§1) MICs were evaluated following the CLSI microdilution method in BBL™ Mueller-Hinton II broth (Wikler et al., Clinical Laboratory Standards Institute Document M7-A7, 29 (2009)). Briefly, two-fold serial dilutions of compound were prepared in triplicate in 96-well plates and inoculated with 5×10^5 cfu/mL of the bacterial suspension. Plates were incubated at 37° C. for 16-20 hours."}, "PBP2a": {"target": "T1, PBP2a (Staphylococcus aureus, UniProt Q53707)", "T1 construct": "PBP2a was purified using a previously described protocol (Fuda et al., J. Biol. Chem. 279, 40802-40806 (2004)); made in house", "T1 sequence (Q53707 entry or part of it)": "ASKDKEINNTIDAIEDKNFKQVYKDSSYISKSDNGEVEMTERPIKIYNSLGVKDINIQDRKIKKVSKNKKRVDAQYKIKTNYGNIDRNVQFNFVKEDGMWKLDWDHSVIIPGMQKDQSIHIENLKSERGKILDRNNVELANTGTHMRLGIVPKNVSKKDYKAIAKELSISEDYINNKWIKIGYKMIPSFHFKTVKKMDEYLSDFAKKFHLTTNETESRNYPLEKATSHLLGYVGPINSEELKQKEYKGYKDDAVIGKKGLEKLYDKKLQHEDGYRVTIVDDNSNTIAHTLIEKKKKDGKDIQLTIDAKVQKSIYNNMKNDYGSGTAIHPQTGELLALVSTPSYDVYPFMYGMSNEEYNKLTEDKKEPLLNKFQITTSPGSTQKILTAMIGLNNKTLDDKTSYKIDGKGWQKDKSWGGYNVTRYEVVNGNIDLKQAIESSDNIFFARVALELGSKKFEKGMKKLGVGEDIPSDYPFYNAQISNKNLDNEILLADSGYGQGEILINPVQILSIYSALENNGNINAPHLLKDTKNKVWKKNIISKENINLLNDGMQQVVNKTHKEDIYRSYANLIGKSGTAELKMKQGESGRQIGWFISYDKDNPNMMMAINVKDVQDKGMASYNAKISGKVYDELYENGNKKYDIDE", "experiment": "Bocillin FL competition assay, purified recombinant PBP2a", "format": "binding, S. aureus", "excerpt": "We next explored if it would inhibit purified recombinant PBP2a by a competition assay with Bocillin FL, a fluorescent penicillin reporter reagent. We purified PBP2a for this study using a previously described protocol from the laboratory of Prof. Mobashery (Fuda et al., J. Biol. Chem. 2004, 279, 40802-40806). This inhibition assay for PBPs has the limitation in that Bocillin FL is a covalent modifier of the active site of PBPs and the equilibrium is inexorably in favor of the irreversible acylation of the active-site serine by the reporter molecule. As such, the degree of inhibition by the non-covalent inhibitor (e.g., 2) will be underestimated.\nThis inhibition assay for PBPs has the limitation in that Bocillin FL is a covalent modifier of the active site of PBPs and the equilibrium is inexorably in favor of the irreversible acylation of the active-site serine by the reporter molecule. As such, the degree of inhibition by the non-covalent inhibitor (e.g., 2) will be underestimated. This is what was seen.\nThe Bocillin FL competition assays were performed with purified PBP2a and membrane extracts. […] Samples were centrifuged, loaded to SDS-PAGE, the gels were visualized immediately using a Storm840 Scanner, and fluorescence was quantified using ImageQuant software. IC50 values were calculated using GraphPad prism 5, using the previously published equation."}, "[1]": {"tested_on": "S. epidermidis ATCC 35547", "experiment": "MIC, CLSI broth microdilution, S. epidermidis ATCC 35547", "format": "cell-based", "procedure": "as §1"}}, "note": "Where two headings read alike, the source gives them in different places."}
{"smiles": "N#Cc1ccc(/C=C/c2nc3ccccc3c(=O)n2-c2cccc(C(=O)O)c2)cc1.[Na]", "note": "[Compound 2, Sodium (E)-3-(3-carboxyphenyl)-2-(4-cyanostyryl)quinazolin-4(3H)-one]", "values": [{"measurement": "MIC", "setting": "S. aureus NRS70; NRS70", "result": 2, "unit": "µg/mL"}, {"measurement": "MIC", "setting": "S. aureus NRS70; NRS70, read-out: MIC NRS70", "result": 4, "unit": "µg/mL"}, {"measurement": "In vitro AB activity (MIC)", "setting": "S. aureus NRS70; Table 2.1, S. aureus NRS70", "result": 2, "unit": "µg/mL"}, {"measurement": "IC50", "setting": "PBP2a", "result": 336, "unit": "µM"}, {"measurement": "MIC", "setting": "[1]; Staphylococcus epidermidis, ATCC35547", "result": 1, "unit": "µg/mL"}, {"measurement": "In vitro AB activity (MIC)", "setting": "[1]; Table 2.1, S. epidermidis ATCC 35547", "result": 1, "unit": "µg/mL"}]}
